The structures appear in SMILES notation.

For the assay, the target named is T1, Recombinant human KIF18A (1-467 His-tagged) protein (Homo sapiens, UniProt Q8NI77).
T1 construct: Recombinant human KIF18A (1-467 His-tagged) protein; His; made in house
T1 sequence (Q8NI77 1-467): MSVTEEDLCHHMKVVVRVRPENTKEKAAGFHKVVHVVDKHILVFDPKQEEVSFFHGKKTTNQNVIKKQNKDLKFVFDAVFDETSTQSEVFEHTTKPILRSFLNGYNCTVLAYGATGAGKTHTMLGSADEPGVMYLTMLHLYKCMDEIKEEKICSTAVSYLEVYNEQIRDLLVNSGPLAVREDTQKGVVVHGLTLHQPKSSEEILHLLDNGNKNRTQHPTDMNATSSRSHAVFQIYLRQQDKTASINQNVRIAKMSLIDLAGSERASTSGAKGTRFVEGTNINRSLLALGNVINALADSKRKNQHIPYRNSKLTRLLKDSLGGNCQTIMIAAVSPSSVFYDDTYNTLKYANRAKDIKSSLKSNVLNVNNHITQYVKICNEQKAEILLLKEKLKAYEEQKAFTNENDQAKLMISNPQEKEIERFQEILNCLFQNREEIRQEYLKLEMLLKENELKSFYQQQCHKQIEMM
T1 sequence (P02550 whole entry partner): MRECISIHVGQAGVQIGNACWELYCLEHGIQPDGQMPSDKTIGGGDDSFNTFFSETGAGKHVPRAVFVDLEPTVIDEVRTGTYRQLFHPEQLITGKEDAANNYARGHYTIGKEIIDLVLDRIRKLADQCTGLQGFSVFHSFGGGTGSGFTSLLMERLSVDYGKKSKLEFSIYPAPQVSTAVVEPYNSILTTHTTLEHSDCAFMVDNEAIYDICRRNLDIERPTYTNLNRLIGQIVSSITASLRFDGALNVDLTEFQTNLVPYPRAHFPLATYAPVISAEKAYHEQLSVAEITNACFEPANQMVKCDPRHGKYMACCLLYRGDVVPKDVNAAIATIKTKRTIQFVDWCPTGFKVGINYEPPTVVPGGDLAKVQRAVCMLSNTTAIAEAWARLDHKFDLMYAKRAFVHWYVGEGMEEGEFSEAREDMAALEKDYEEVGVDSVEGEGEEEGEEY
T1 sequence (P02554 whole entry partner): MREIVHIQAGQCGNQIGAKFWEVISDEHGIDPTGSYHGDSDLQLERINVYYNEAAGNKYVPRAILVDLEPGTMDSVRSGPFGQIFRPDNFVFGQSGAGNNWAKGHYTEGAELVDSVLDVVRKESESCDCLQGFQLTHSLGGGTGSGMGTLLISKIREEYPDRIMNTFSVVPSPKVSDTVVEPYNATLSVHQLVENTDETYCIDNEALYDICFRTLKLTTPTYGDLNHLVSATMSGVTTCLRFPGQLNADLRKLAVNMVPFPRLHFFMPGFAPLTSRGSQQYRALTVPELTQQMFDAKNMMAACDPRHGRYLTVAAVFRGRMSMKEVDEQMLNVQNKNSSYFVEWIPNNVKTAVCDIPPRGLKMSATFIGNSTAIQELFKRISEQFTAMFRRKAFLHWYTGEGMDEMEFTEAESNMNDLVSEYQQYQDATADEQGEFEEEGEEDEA
Put plainly: KIF18A Enzyme Assay: microtubule-stimulated ATPase activity (ADP-Glo). In kind it is biochemical. Conditions: 30 nM KIF18A, 30 μg/mL pig microtubules, 75 μM ATP, ADP-Glo luminescence. A digest of the protocol: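 IC50 comes from a four-parameter logistic fit over a 22-point, 2-fold series, with ADP quantified by ADP-Glo luminescence. Reactions ran at room temperature: compound plus 30 nM KIF18A(1-467)-His for 15 min, then 75 μM ATP (Km) for 15 min. The buffer held pig microtubules at 30 μg/mL and 1 μM taxol.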
For the molecule `CC(O)(c1ccc(NC(=O)c2cccc(N3CCOCC3)n2)c(N2CCC3(CC2)CC3)n1)C(F)(F)F` (stereo not drawn) [Example 246, N-(2-(6-Azaspiro[2.5]octan-6-yl)-6-(1,1,1-trifluoro-2-hydroxypropan-2-yl)pyridin-3-yl)-6-morpholinopicolinamide], the IC50 came out at 292 nM.
In the case of `C[C@@H]1CN(c2nc(NC(=O)c3ccc(NC(C)(C)CO)nc3N3CCC4(CC3)CC4)ccc2F)CCO1` [Example 247, 2-(6-azaspiro[2.5]octan-6-yl)-N-(5-fluoro-6-((2R)-2-methyl-4-morpholinyl)-2-pyridinyl)-6-((1-hydroxy-2-methyl-2-propanyl)amino)-3-pyridinecarboxamide], the IC50 is 89.1 nM.
Under `O=C(Nc1ccc(NS(=O)(=O)CCO)cc1N1CCC2(CC1)CC2)c1cccc(N2CCC(F)(F)CC2)n1` [Example 248, 6-(4,4-difluoropiperidin-1-yl)-N-(4-((2-hydroxyethyl)sulfonamido)-2-(6-azaspiro[2.5]octan-6-yl)phenyl)picolinamide] stands 16 nM.

(Values after US12441736B2, “KIF18A inhibitors” (AMGEN INC., priority 2018, dated 2025).)
